Where “and” joins values, the source holds several entries; their conditions need not be identical. Identical values can stand only once. No end group written: not given here.
Assays:
[1] = target: T1, GluN1-GluN2B (Rattus norvegicus, UniProt P35439+Q00960); experiment: cell-based
T1 construct: GFP (N); expressed in transfected cells; host or cells: HEK-293T

[2] = target: T1, GluN1-GluN2B; assay type: cell-based
[3] = target: T2, GluN1/GluN2A-V820I (Rattus norvegicus, UniProt P35439+Q00959, V820I); assay type: cell-based
T2 construct: GFP (N); expressed in transfected cells; host or cells: HEK-293T

[4] = target: T3, GluN1-GluN2A (Rattus norvegicus, UniProt P35439+Q00959); assay type: cell-based
T3 construct: GFP (N); expressed in transfected cells; host or cells: HEK-293T (single-channel: HEK293)
T3 sequence (Q00959 23-1464, other chains not shown): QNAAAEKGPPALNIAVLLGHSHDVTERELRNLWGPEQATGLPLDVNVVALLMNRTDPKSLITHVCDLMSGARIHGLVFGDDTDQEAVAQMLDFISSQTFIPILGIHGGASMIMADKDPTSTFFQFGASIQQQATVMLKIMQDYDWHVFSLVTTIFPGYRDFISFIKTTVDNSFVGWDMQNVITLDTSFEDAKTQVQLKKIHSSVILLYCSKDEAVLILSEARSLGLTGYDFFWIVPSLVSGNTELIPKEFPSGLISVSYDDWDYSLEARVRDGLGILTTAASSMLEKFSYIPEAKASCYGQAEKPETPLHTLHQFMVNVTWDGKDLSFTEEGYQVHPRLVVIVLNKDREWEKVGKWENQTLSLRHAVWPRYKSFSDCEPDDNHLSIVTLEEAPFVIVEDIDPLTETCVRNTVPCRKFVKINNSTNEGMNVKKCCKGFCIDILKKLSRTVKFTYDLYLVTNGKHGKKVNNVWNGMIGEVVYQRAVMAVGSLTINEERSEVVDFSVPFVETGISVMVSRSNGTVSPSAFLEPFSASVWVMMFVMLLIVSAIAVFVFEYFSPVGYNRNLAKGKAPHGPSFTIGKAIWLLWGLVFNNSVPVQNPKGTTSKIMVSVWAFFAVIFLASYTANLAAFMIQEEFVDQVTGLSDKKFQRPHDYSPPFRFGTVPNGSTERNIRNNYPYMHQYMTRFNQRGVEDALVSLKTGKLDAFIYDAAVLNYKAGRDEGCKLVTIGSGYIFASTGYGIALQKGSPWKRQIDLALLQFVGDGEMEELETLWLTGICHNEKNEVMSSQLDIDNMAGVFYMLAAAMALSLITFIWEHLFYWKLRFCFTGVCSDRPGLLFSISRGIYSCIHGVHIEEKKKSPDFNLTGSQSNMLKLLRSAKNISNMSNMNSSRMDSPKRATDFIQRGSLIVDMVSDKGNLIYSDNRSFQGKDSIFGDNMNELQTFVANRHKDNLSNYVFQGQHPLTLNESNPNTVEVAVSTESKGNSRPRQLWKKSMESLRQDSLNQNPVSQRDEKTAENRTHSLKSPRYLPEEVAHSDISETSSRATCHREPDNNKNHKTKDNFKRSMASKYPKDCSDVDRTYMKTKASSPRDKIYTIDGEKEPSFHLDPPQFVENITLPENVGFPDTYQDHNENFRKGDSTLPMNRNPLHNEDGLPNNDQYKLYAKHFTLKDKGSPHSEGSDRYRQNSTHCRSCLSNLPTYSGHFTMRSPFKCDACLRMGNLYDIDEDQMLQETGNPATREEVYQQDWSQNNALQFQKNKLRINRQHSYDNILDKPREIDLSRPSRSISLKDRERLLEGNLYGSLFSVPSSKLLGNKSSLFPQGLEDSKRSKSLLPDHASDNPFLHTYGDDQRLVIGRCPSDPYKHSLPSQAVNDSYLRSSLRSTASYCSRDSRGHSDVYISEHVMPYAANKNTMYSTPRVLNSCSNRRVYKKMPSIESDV

[5] = target: T3, GluN1-GluN2A; assay type: cell-based; remark: listed apart in the source
[6] = target: T3, GluN1-GluN2A; experiment: cell-based
[7] = target: T4, GluN1-GluN2D (Rattus norvegicus, UniProt P35439+Q62645); assay type: cell-based
T4 construct: HA (N); expressed in transfected cells; host or cells: HEK-293T

[8] = target: T5, GluN1-GluN2C (Rattus norvegicus, UniProt P35439+Q00961); assay type: cell-based
T5 construct: HA (N); expressed in transfected cells; host or cells: HEK-293T
T5 sequence (Q00961 20-1237, other chains not shown): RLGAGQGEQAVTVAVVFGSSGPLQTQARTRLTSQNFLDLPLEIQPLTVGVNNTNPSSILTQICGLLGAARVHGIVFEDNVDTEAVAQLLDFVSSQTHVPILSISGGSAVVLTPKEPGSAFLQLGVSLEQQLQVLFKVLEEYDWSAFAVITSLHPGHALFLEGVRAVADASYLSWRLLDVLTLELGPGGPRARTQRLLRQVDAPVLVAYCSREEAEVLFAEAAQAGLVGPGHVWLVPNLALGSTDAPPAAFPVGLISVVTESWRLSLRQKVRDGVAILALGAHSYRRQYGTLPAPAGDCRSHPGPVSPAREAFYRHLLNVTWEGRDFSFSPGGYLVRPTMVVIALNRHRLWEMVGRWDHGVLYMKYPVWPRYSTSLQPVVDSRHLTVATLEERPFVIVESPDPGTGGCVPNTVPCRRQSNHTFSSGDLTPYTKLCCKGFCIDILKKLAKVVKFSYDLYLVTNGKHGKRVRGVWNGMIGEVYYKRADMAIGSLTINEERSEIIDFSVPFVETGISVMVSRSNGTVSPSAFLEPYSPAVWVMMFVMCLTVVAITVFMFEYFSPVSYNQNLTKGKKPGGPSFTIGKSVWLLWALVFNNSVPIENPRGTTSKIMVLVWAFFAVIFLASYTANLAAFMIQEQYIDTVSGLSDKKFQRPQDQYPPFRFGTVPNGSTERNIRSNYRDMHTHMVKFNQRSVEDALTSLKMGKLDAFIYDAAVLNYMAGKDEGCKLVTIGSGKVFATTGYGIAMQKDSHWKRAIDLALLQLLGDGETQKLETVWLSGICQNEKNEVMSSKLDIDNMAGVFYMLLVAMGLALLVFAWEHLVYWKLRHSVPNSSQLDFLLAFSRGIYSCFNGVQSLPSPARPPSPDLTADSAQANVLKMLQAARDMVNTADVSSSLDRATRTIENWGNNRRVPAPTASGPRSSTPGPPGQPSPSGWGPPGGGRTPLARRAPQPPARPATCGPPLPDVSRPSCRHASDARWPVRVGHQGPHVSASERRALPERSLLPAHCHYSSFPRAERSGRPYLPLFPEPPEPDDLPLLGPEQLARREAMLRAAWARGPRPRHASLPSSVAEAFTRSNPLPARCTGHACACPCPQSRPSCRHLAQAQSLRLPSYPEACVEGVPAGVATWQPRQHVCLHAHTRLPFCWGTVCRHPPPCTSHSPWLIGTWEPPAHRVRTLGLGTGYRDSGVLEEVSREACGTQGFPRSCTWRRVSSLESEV

[9] = target: T1, GluN1-GluN2B; assay type: cell-based; remark: listed apart in the source

T1 sequence (Q00960 27-1482, other chains not shown): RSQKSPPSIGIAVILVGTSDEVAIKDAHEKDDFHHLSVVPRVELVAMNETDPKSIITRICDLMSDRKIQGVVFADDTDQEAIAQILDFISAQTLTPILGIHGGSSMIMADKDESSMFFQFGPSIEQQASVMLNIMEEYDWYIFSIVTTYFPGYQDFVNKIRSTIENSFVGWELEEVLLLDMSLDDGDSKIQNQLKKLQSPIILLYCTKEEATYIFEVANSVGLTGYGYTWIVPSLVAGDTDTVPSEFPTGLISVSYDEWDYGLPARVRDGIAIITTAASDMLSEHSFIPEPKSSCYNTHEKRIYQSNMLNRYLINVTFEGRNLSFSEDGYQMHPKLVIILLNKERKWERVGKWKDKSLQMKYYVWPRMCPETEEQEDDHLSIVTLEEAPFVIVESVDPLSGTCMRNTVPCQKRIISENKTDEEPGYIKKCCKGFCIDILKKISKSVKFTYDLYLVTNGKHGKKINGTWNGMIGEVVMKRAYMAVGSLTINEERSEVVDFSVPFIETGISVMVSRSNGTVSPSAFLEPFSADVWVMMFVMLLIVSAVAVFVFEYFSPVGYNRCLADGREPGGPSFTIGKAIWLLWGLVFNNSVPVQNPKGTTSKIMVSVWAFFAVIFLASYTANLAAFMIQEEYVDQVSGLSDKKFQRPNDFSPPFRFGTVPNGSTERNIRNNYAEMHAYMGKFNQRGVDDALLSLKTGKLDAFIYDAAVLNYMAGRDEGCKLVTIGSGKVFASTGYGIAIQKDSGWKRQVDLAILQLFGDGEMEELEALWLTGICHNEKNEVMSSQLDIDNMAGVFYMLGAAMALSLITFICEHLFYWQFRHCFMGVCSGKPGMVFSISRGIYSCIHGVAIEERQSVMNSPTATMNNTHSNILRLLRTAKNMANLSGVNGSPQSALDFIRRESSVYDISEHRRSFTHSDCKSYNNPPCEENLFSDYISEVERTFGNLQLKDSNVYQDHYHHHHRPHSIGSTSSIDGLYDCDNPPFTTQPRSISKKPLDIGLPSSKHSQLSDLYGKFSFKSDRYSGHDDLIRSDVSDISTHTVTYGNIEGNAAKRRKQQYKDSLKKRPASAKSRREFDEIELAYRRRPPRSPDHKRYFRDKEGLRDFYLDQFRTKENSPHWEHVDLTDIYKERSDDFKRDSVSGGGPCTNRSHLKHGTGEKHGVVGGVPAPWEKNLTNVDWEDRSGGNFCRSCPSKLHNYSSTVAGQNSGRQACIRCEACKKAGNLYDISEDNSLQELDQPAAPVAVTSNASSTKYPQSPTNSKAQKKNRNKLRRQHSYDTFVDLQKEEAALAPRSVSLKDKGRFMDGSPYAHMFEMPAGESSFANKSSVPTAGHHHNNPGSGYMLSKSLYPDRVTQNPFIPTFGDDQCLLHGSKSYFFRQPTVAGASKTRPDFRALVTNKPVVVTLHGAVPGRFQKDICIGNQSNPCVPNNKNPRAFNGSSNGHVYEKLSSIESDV

## KLGMRSELQIDNDQDAD [EAR-20]
[1]
  EC50: 42.2 µM
[2]
  peak current potentiation: 102.6% ± 24.02%
  potentiation by EAR-20: 136.8% ± 19.6%
  steady-state current potentiation: 137.9% ± 21.0% and 137.9% and 143.7% ± 26.8%
[3]
  steady-state potentiation: 146.6% ± 37.8%
[4]
  agonistic activity relative to glutamate plus glycine: 13.31% ± 6.5%
[5]
  peak current potentiation: 15.68% ± 6.19% and 15.68% ± 6.16%
  steady-state current potentiation: 154.3% ± 19.0% and 154.3% and 153.3% ± 19.9%
[6]
  EC50: 88.7 µM
[7]
  peak current potentiation: 4.97% ± 2.63%
  steady-state current potentiation: 102.45% ± 11.1%
[8]
  peak current potentiation: −8.04% ± 7.48%
  steady-state current potentiation: 23.31% ± 7.6% and ~25%
[9]
  maximal agonist activity relative to glutamate plus glycine: 12.18% ± 6.9%
  response in the presence of glutamate, % of glutamate plus glycine response: 38.33% ± 17.1%
  response in the presence of glycine, % of glutamate plus glycine response: 43.22% ± 18.1%
